The test system of data set [1] is Cav2.2 null mice and wild-type mice. On the procedure:
See Example 2. Mice were injected intraperitoneally with saline and placed in the central, access chamber of a three-chambered apparatus. The door to a second chamber (saline-paired chamber), off the central chamber, was then opened to allow mice access to the second chamber, into which the mice entered. The door was then closed and the mice remained in the second chamber for 5 min before being removed and returned to the home cage. On the following day, the procedure was repeated, except that the mice were given an intraperitoneal injection of ethanol (at the doses indicated in FIG. 2) and allowed to enter, by the same procedure as for the saline-paired side, a third chamber (drug-paired chamber), instead of the saline-paired chamber. The ethanol and saline-paired chambers differed in floor texture and wall color. Drug-paired and saline-paired chambers were assigned randomly, i.e., some mice received ethanol in the same type of chamber in which other mice received saline. This process, saline one day and ethanol the next, was then repeated three times further, resulting in a total of four saline/drug-chamber pairings. On the day immediately following the completion of this 8-day training period, the mice were placed into the central chamber and allowed free access to all three chambers for a total of 30 minutes. Time spent in each of the three chambers was analyzed for each genotype by paired two-tailed t-tests with Bonferroni correction for multiple comparisons. […] To control for a baseline preference for a particular chamber type, all mice received a 30-min test in the chambers prior to training.
Mice were trained in a conditioned place preference (CPP) apparatus (Med Associates, St. Albans, Vt.) that consisted of white and black chambers with different floor textures (black side with rod floor vs. white side with grid floor) that were separated by a central gray access compartment. To measure baseline preference for the test chambers, mice were allowed to roam freely in the entire apparatus for 30 min during the first day of the test. […] The ethanol-paired chamber was assigned randomly across subjects. For conditioning, mice were treated with ethanol (1.2, 2.0, or 2.8 grams/kg v/v in 0.9% saline) and immediately placed in one side for 5 min. On the next day, they were injected with an equivalent volume of saline and placed in the other side. This sequence was repeated four times for a total of 4 days ethanol and 4 days saline, with two rest days halfway through training. On the test day immediately following the final training day, mice were allowed free access to all 3 compartments for 30 min. CPP was assessed by comparing the time spent in the drug-paired chamber on the test day with the time spent in the saline-paired chamber and the central chamber on the test day by paired two-tailed t-tests with Bonferroni correction for multiple comparisons. The mice were considered to have developed CPP for ethanol if they spent more time in the ethanol-paired chamber compared with the other two chambers on the test day.

Data set [2] concerns Cav2.2 null mice and wild-type littermates. On the procedure:
Both groups of mice were injected intraperitoneally with ethanol (3.6 g/kg in 0.9% w/v saline) and then assessed for loss of the righting reflex (LORR). Loss of the righting reflex was defined as a mouse being unable to right itself 3 times within 30 sec. Upon losing the righting reflex, mice were placed on their backs and the time taken for them to regain the righting reflex was measured. A mouse was defined as having regained the righting reflex when it was able to right itself 3 times within 30 sec. A blood sample was taken from the tail of each mouse when it regained the righting reflex in order to determine blood ethanol concentration. Blood was centrifuged at 10,000 g and serum blood alcohol concentration determined using an Analox AM-1 analyser (Analox Instruments, Luneburg Mass.). We determined the threshold concentration of ethanol required to induce LORR using the “up-and-down” method (Dixon, 1965; Findlay et al., 2002). […] If the first mouse lost the righting reflex, then the next mouse was given a lower ethanol dose. […] The log dose interval was 0.0138, corresponding to approximately a 0.1 g/kg difference between doses. The ED50 value was determined as described (Findlay et al., 2002), with 95% confidence intervals determined by the following equation: 95% CI=dosing increment×square root of (2/n)×1.96, where n=the last n trials (6) and 1.96 reflects the 0.05 α level (Dixon, 1965).

For data set [3] the test system is unchanged. The conditions noted are these: 2 g/kg ethanol i.p., Cav2.2 null vs wild-type. How it is done: Mice were trained to remain for 180 s on a rotarod apparatus (Ugo Basile Biological Research, Varese, Italy) rotating at a fixed rate of 20 rpm. The first test session was carried out the following day. During a test session, each mouse was placed on the rotarod and the time taken for the animal to fall off the rod was recorded. Mice were then injected intraperitoneally with ethanol and re-tested every 15 min for 1 h. […] Three further days later, the mice were trained to remain on an accelerating (4-40 rpm) rotarod for 300s.

The test system is the same in data set [4]. On the procedure: The conditioned taste aversion study was carried out according to established protocols ([…] and Boyce, 2002) (Chester et al., 2003). Animals were singly housed and acclimatized to limited water access by allowing them access to water for decreasing periods of time (10, 8, 6 and 4 h per day on subsequent days) followed by 2-h daily access for one week. Following acclimatization, they were placed on the conditioning schedule consisting of 1-h access (13:00 to 14:00h) to the conditioned stimulus (CS, a solution of 1.2% (w/v) saline), followed immediately by a saline (0.9% w/v) injection. […] The following day they were allowed two hours of access to drinking water (13:00 to 15:00). This 2-d procedure constituted a single trial and was repeated 7 times to establish baseline consumption levels of 1.2% NaCl. […] Data were compared by two-way ANOVA with factors for injection and genotype.
This is another data set of the same source.

The test system is the same in data set [5]. The conditions noted are these: solutions containing 6% or 10% ethanol.
For data set [6] the following is noted: 4 g/kg ethanol i.p., Cav2.2 null vs wild-type.
The test system of data set [7] is Cav2.2 null mice and littermates. The conditions noted are these: alcohol vapor 3 days, 16 hours per day; Cav2.2 null vs littermates.
Description: Handling-induced convulsions (HIC) were measured at various intervals over the next 48 hours.
For data set [8], the target named is N-type calcium channel (Rattus norvegicus, UniProt Q02294). The following applies: PC12 cells, 25-200 mM ethanol for 2-8 days; cited from earlier work.
Chain of N-type calcium channel (Q02294 whole entry, looked up): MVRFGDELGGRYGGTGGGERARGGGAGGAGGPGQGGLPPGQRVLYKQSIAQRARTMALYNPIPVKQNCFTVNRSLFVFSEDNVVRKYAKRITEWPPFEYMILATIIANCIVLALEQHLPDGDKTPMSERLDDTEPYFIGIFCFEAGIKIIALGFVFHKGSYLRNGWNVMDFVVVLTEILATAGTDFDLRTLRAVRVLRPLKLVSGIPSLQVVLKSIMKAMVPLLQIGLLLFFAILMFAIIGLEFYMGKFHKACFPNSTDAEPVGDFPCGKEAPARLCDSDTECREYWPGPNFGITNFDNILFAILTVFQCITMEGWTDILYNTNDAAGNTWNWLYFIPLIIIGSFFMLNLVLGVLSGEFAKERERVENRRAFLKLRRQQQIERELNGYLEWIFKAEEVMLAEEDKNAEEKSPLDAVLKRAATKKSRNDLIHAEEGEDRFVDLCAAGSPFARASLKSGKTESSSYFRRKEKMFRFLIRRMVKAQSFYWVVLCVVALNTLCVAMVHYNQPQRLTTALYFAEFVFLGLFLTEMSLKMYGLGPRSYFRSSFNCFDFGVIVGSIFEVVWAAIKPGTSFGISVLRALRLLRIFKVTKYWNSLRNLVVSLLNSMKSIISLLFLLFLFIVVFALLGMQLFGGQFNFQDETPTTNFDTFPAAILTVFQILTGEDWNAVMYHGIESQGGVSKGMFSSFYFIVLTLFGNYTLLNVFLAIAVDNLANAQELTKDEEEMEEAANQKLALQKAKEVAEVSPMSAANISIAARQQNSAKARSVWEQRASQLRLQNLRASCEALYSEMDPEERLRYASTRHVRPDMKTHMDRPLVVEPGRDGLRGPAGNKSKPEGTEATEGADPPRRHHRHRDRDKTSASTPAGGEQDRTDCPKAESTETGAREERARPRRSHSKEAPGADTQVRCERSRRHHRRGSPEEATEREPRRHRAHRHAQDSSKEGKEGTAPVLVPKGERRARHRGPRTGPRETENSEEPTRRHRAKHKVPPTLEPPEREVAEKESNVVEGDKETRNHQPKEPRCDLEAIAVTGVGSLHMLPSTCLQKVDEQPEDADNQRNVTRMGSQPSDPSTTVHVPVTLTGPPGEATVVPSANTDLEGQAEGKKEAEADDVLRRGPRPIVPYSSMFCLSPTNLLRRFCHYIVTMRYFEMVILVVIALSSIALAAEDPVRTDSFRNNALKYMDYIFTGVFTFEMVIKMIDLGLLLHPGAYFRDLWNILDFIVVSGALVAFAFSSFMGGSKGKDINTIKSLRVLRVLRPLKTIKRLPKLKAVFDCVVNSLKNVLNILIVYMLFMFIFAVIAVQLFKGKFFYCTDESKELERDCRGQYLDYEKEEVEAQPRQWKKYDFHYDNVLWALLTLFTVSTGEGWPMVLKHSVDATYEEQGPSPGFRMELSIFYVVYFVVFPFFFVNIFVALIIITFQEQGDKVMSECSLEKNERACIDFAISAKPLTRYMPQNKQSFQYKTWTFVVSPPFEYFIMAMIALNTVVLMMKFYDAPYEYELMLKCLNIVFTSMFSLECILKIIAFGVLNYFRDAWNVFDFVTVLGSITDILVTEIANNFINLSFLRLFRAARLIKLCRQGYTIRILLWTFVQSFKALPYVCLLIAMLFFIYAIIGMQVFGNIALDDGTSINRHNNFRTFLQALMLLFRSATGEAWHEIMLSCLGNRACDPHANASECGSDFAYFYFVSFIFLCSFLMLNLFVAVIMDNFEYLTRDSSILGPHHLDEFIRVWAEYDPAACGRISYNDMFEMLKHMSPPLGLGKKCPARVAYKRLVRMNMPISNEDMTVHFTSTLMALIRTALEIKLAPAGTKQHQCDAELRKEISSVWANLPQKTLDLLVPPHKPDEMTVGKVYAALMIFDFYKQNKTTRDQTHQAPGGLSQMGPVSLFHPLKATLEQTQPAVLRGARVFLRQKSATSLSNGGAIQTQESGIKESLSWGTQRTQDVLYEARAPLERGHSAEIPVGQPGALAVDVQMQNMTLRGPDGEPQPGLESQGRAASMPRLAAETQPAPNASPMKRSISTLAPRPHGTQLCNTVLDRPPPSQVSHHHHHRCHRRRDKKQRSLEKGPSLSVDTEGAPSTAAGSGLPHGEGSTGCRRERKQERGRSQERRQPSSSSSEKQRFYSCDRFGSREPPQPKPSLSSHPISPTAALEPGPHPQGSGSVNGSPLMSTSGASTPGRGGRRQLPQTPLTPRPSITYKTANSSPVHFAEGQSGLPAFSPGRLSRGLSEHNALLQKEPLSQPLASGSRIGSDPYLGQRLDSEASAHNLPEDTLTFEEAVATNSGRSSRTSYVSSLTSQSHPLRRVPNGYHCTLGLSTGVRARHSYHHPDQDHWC

Where two headings read alike, the source gives them in different places.

Turning to `CCO` [ethanol], the conditioned place preference entry was “completely absent” in data set [1] (Cav2.2 null mice, 2 g/kg ethanol); “Neither genotype showed place preference or aversion” in data set [1] (both genotypes, 1.2 g/kg and 2.8 g/kg ethanol); “no conditioned place preference” in data set [1] (inbred 129/SvJae background, Cav2.2 null); “significant conditioned place preference” in data set [1] (inbred 129/SvJae background, wild-type, ethanol 1.5 g/kg); “robust place preference” in data set [1] (wild-type mice, 2 g/kg ethanol). Further, the “blood ethanol concentration at regaining righting reflex, Cav2.2 null vs wild-type” value in data set [2] (3.6 g/kg ethanol i.p.) is reported as “higher blood ethanol concentration”. The “decrease in duration of ethanol-induced LORR, Cav2.2 null vs wild-type” value in data set [2] (3.6 g/kg ethanol i.p.) was found to be 70%. The “increase in threshold ethanol dose that induces LORR, Cav2.2 null vs wild-type” value in data set [2] (10% v/v ethanol i.p., up-and-down method) was determined as 16%. Besides, the “duration of ethanol-induced LORR” value in data set [2] (inbred 129/SvJae background, Cav2.2 null vs wild-type) is “decreased duration”. For the same molecule, in data set [3], the “latency to fall, accelerating (4-40 rpm) rotarod” value is on record as “shorter latency to fall”. The “conditioned taste aversion to 1.2% NaCl” value in data set [4] (2 g/kg ethanol injection, both genotypes) is reported as “both genotypes rapidly developed conditioned taste aversion”. The “magnitude of conditioned taste aversion” value in data set [4] (2 g/kg ethanol, Cav2.2 null vs wild-type) was “reduced”. Moreover, in data set [5], the “alcohol consumption, Cav2.2 null mice less than wild-type littermates” value is given as “about 30%”. The “clearance of ethanol from the blood” value in data set [6] is on record as “no difference between the genotypes”. For the same molecule, the “handling-induced convulsions during alcohol withdrawal” value in data set [7] is listed as “increased handling-induced convulsions”. The “binding sites for 125I-ω-conotoxin GVIA” value in data set [8] was “reversible time- and concentration-dependent increase”.

(Values after patent US7365050B2, “Methods for modulating a drug-related effect or behavior” (The Regents of the University of California, priority 2003, dated 2008).)
